According to publication PMC5750217 (Nature Communications, 2018):

Target: T1, GltPh-R397C (Pyrococcus horikoshii, UniProt O59010, R397C)
T1 construct: hexa-His (N, cleaved yes); made in house; host or cells: Escherichia coli Top10 (pBAD)
Test: biochemical
Conditions: for Transport of radiolabelled substrate into proteoliposomes (in words): 100 nM L-[3H]aspartate, 1 µM L-[3H]glutamine, 10 µM 35S-cysteine ± 1 mM DTT, Na+ gradient
Experimental: Mutant and wild-type GltPh with an amino-terminal hexa-His tag were expressed in Escherichia coli Top10 cells (Invitrogen), which were grown in Luria broth medium at 37 °C. Ampicillin was added to a final concentration of 100 μg per ml. To induce expression of GltPh, 0.1% L-arabinose was added when cells reached an optical density of 0.6 at 660 nm, and cells were harvested 4 h post induction. Membranes were isolated, and then solubilised with n-dodecyl-β-D-maltopyranoside (C12M, Anatrace). Histidine containing proteins were purified using Ni^2+−nitrilotriacetic acid resin (Qiagen). The histidine tag was subsequently removed from GltPh by digestion with thrombin (10 U per mg protein) and the protein further purified on a Superdex 200 size exclusion column, where the detergent was exchanged to n-decyl-β-D-maltopyranoside (C10M, Anatrace).
Pure protein was reconstituted into liposomes composed of 75% E. coli Polar Lipid Extract and 25% 1-palmitoyl-2-oleoyl-sn-glycero-3 ^−phopshocholine (Avanti Polar Lipids). Lipids were mixed, dried under nitrogen and resuspended in internal buffer (100 mM KCl, 20 mM HEPES-Tris pH 7.5) using brief sonication (Laboratory Supplies Co.). The lipid suspension was frozen in liquid nitrogen and thawed at room temperature several times. Liposomes were formed by extrusion through 400 nm polycarbonate membranes (Avanti Polar Lipids) and were treated with Triton X-100 at a 0.5:1 (w/w) detergent to lipid ratio prior to the addition of protein at 0.25 μg protein per mg lipid. The protein/lipid mixture was left at room temperature for 30 min before detergent was removed using SM2 Biobeads (BioRad). The mixture was then incubated with gentle agitation, with four consecutive batches of Biobeads (80 mg per ml). Proteoliposomes were concentrated by centrifugation at 150,000 g for 30 min, resuspended at 100 mg lipid per ml and either used immediately or flash-frozen in liquid nitrogen and stored at −80 °C.
Mutant and wild-type GltPh-mediated transport of radiolabelled substrate was assayed by diluting proteoliposomes (100 mg lipid per ml) 133-fold into uptake buffer (100 mM NaCl, 20 mM HEPES-Tris pH 7.5, 1 μM valinomycin, 100 nM–1 µM L-[^3H]substrate) pre-warmed to 30 °C. At each time point, a 200 µl aliquot was removed and diluted 10-fold into ice-cold quench buffer (100 mM LiCl, 20 mM HEPES-Tris pH 7.5), followed by immediate filtration over nitrocellulose filters (0.22 μm pore size, Millipore). The filters were washed with ice-cold quench buffer and assayed for radioactivity using a Trilux beta counter (PerkinElmer). To establish substrate concentration–response curves, extraliposomal L-[^3H]substrate was varied between 500 nM and 100 µM, maintaining NaCl concentrations at 300 mM. For inhibitor concentration–response curves, for wild-type GltPh 100 nM L-[^3H]aspartate, and for mutant GltPh 1 µM L-[^3H]serine, was co-applied with varying inhibitor concentrations. Background levels of uptake were measured by diluting proteoliposomes into internal buffer (100 mM KCl, 20 mM HEPES-Tris pH 7.5) containing 1 µM of valinomycin and the indicated concentrations of L-[^3H]substrate.
Supplementary Figure 6. GltPh‐R397C, ASCT1 and ASCT2 are functional cysteine transporters. (a) Purified GltPh‐R397C was reconstituted into liposomes and 10µM 35S‐cysteine transport was measured over 10 minutes alone or in the presence of 1 mM dithiothreitol (DTT). Background levels of uptake were measured by diluting proteoliposomes into internal buffer (100 mM KCl, 20 mM HEPES‐Tris pH 7.5) containing 1 µM of valinomycin and the 10µM 35S‐cysteine. […]
(c) Neutral amino acid exchange in GltPh‐R397C. Counterflow experiments in which Na+ and amino acid loaded liposomes were used to detect the transport of a range of unlabelled neutral amino acids by exchanging with external 3H‐serine. Counterflow assays were performed using liposomes containing 200mM NaCl, 20 mM HEPES/Tris pH 7.5, and 1 mM of unlabelled amino acid as indicated. […]

T1 sequence (O59010 whole entry R397C): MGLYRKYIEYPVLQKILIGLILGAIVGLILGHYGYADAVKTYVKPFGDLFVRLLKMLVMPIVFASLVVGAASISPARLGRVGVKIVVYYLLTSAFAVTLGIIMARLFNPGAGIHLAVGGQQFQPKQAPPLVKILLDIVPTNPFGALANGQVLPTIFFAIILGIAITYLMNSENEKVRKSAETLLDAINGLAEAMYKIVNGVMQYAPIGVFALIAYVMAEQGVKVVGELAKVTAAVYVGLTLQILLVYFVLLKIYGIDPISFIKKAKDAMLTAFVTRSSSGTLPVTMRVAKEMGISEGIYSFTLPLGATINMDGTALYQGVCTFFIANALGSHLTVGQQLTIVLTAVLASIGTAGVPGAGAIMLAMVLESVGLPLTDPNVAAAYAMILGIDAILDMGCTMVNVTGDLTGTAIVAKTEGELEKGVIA

N[C@@H](CO)C(=O)O [L-serine]
EC50: 4.5 ± 0.9 µM
Fold lower affinity for GltPh-R397C compared with L-aspartate for wild-type GltPh (serine at GltPh-R397C vs L-aspartate at wild-type GltPh): 100 fold

N[C@@H](CCC(=O)Nc1ccc([N+](=O)[O-])cc1)C(=O)O [GPNA, glutamyl-p-nitroanilide]
IC50 for inhibition of L-[3H]serine transport (GltPh-R397C, 1 µM L-[3H]serine): poorly inhibited

NC(=O)CC[C@H](N)C(=O)O [L-glutamine]
Transport of radiolabelled substrate into proteoliposomes (in words) (GltPh-R397C, listed as L-Glutamine): not a substrate
Transport of radiolabelled substrate into proteoliposomes (in words) (GltPh-R397C, listed as L-[^3H]glutamine): not transported at levels above background
Reduction of L-[3H]serine transport by unlabelled competitor (GltPh-R397C, 10 µM L-[3H]serine, 100-fold excess unlabelled amino acid): able to bind and inhibit
